Article PMC8632988, “Inhibition of SYK and cSrc kinases can protect bone and cartilage in preclinical models of osteoarthritis and rheumatoid arthritis” (Scientific Reports, 2021)

Assays:
Experiment in all cases: Kinase selectivity profile assay
Format in all cases: biochemical
ALK6/BMPR1B = biological target: T1, ALK6/BMPR1B (Homo sapiens, UniProt O00238); conditions: 500 nM; relative to DMSO; read-out: Residual enzymatic activity
T1 construct: purchased Reaction Biology Corporation
Procedure, shortened: (§1)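 Radiometric kinase assay run by a standard protocol. Unbound phosphate was removed by washing filters in phosphoric acid, and product radioactivity gave percent remaining kinase activity versus DMSO vehicle reactions. Run in duplicate.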

ARAF = biological target: T2, ARAF (Homo sapiens, UniProt P10398); conditions: 500 nM; relative to DMSO; read-out: Residual enzymatic activity
T2 construct: purchased Reaction Biology Corporation
Procedure, shortened: as §1

BRK = biological target: T3, BRK (Homo sapiens, UniProt Q13882); conditions: 500 nM, relative to DMSO; for remaining activity at 0.5 µM: read-out: Residual enzymatic activity
T3 construct: purchased Reaction Biology Corporation
Procedure, shortened: as §1

CDK6/cyclin D1 = biological target: T4, CDK6/cyclin D1 (Homo sapiens, UniProt Q00534); conditions: 500 nM; relative to DMSO; read-out: Residual enzymatic activity
T4 construct: purchased Reaction Biology Corporation
Procedure, shortened: as §1

DCAMKL2 = biological target: T5, DCAMKL2 (Homo sapiens, UniProt Q8N568); conditions: 500 nM; relative to DMSO; read-out: Residual enzymatic activity
T5 construct: purchased Reaction Biology Corporation
Procedure, shortened: as §1

DDR2 = biological target: T6, DDR2 (Homo sapiens, UniProt Q16832); conditions: 500 nM; relative to DMSO; read-out: Residual enzymatic activity
T6 construct: purchased Reaction Biology Corporation
Procedure, shortened: as §1

DYRK1/DYRK1A = biological target: T7, DYRK1/DYRK1A (Homo sapiens, UniProt Q13627); conditions: 500 nM; relative to DMSO; read-out: Residual enzymatic activity
T7 construct: purchased Reaction Biology Corporation
Procedure, shortened: as §1

EPHA7 = biological target: T8, EPHA7 (Homo sapiens, UniProt Q15375); conditions: 500 nM, relative to DMSO; for remaining activity at 0.5 µM: read-out: Residual enzymatic activity
T8 construct: purchased Reaction Biology Corporation
Procedure, shortened: as §1

FGFR1 = biological target: T9, FGFR1 (Homo sapiens, UniProt P11362); conditions: 500 nM, relative to DMSO
T9 construct: purchased Reaction Biology Corporation
Procedure, shortened: as §1

FGR = biological target: T10, FGR (Homo sapiens, UniProt P09769); conditions: for remaining activity at 0.5 µM: 500 nM, relative to DMSO, read-out: Residual enzymatic activity
T10 construct: purchased Reaction Biology Corporation (assay service)
Procedure, shortened: as §1

FRK/PTK5 = biological target: T11, FRK/PTK5 (Homo sapiens, UniProt P42685); conditions: 500 nM, relative to DMSO; for remaining activity at 0.5 µM: read-out: Residual enzymatic activity
T11 construct: purchased Reaction Biology Corporation
Procedure, shortened: as §1

GCK/MAP4K2 = biological target: T12, GCK/MAP4K2 (Homo sapiens, UniProt Q12851); conditions: 500 nM; relative to DMSO; read-out: Residual enzymatic activity
T12 construct: purchased Reaction Biology Corporation
Procedure, shortened: as §1

GRK1 = biological target: T13, GRK1 (Homo sapiens, UniProt Q15835); conditions: 500 nM; relative to DMSO; read-out: Residual enzymatic activity
T13 construct: purchased Reaction Biology Corporation
Procedure, shortened: as §1

Haspin = biological target: T14, Haspin (Homo sapiens, UniProt Q8TF76); conditions: 500 nM; relative to DMSO; read-out: Residual enzymatic activity
T14 construct: purchased Reaction Biology Corporation
Procedure, shortened: as §1

IKKb/IKBKB = biological target: T15, IKKb/IKBKB (Homo sapiens, UniProt O14920); conditions: 500 nM; relative to DMSO; read-out: Residual enzymatic activity
T15 construct: purchased Reaction Biology Corporation
Procedure, shortened: as §1

IR = biological target: T16, IR (Homo sapiens, UniProt P06213); conditions: 500 nM; relative to DMSO; read-out: Residual enzymatic activity
T16 construct: purchased Reaction Biology Corporation
Procedure, shortened: as §1

LATS2 = biological target: T17, LATS2 (Homo sapiens, UniProt Q9NRM7); conditions: 500 nM; relative to DMSO; read-out: Residual enzymatic activity
T17 construct: purchased Reaction Biology Corporation
Procedure, shortened: as §1

LOK/STK10 = biological target: T18, LOK/STK10 (Homo sapiens, UniProt O94804); conditions: 500 nM; relative to DMSO; read-out: Residual enzymatic activity
T18 construct: purchased Reaction Biology Corporation
Procedure, shortened: as §1

LRRK2 = biological target: T19, LRRK2 (Homo sapiens, UniProt Q5S007); conditions: for remaining activity at 0.5 µM: 500 nM, relative to DMSO, read-out: Residual enzymatic activity
T19 construct: purchased Reaction Biology Corporation (assay service)
Procedure, shortened: as §1

MAPKAPK3 = biological target: T20, MAPKAPK3 (Homo sapiens, UniProt Q16644); conditions: 500 nM; relative to DMSO; read-out: Residual enzymatic activity
T20 construct: purchased Reaction Biology Corporation
Procedure, shortened: as §1

MEKK2 = biological target: T21, MEKK2 (Homo sapiens, UniProt Q9Y2U5); conditions: 500 nM; relative to DMSO; read-out: Residual enzymatic activity
T21 construct: purchased Reaction Biology Corporation
Procedure, shortened: as §1

MNK1 = biological target: T22, MNK1 (Homo sapiens, UniProt Q9BUB5); conditions: 500 nM; relative to DMSO; read-out: Residual enzymatic activity
T22 construct: purchased Reaction Biology Corporation
Procedure, shortened: as §1

MNK2 = biological target: T23, MNK2 (Homo sapiens, UniProt Q9HBH9); conditions: 500 nM; relative to DMSO; read-out: Residual enzymatic activity
T23 construct: purchased Reaction Biology Corporation
Procedure, shortened: as §1

MSK2/RPS6KA4 = biological target: T24, MSK2/RPS6KA4 (Homo sapiens, UniProt O75676); conditions: 500 nM; relative to DMSO; read-out: Residual enzymatic activity
T24 construct: purchased Reaction Biology Corporation
Procedure, shortened: as §1

MST3/STK24 = biological target: T25, MST3/STK24 (Homo sapiens, UniProt Q9Y6E0); conditions: 500 nM; relative to DMSO; read-out: Residual enzymatic activity
T25 construct: purchased Reaction Biology Corporation
Procedure, shortened: as §1

NEK1 = biological target: T26, NEK1 (Homo sapiens, UniProt Q96PY6); conditions: 500 nM; relative to DMSO; read-out: Residual enzymatic activity
T26 construct: purchased Reaction Biology Corporation
Procedure, shortened: as §1

PLK2 = biological target: T27, PLK2 (Homo sapiens, UniProt Q9NYY3); conditions: 500 nM; relative to DMSO; read-out: Residual enzymatic activity
T27 construct: purchased Reaction Biology Corporation
Procedure, shortened: as §1

STK22D/TSSK1 = biological target: T28, STK22D/TSSK1 (Homo sapiens, UniProt Q9BXA7); conditions: for remaining activity at 0.5 µM: 500 nM, relative to DMSO, read-out: Residual enzymatic activity
T28 construct: purchased Reaction Biology Corporation (Malvern, PA, USA)
T28 sequence (Q9BXA7 1-367): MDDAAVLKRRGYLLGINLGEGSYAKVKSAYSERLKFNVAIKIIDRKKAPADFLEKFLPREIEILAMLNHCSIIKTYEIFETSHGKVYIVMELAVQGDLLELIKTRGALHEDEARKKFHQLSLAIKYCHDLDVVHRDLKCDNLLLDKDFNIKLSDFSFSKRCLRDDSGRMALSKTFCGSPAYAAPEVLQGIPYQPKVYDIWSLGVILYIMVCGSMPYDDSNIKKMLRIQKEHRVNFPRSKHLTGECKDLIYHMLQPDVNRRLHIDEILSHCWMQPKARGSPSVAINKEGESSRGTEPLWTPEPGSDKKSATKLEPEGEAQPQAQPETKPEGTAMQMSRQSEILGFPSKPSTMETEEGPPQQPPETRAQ
Procedure, shortened: as §1

TTBK2 = biological target: T29, TTBK2 (Homo sapiens, UniProt Q6IQ55); conditions: 500 nM; relative to DMSO; read-out: Residual enzymatic activity
T29 construct: purchased Reaction Biology Corporation
Procedure, shortened: as §1

TYK1/LTK = biological target: T30, TYK1/LTK (Homo sapiens, UniProt P29376); conditions: 500 nM; relative to DMSO; read-out: Residual enzymatic activity
T30 construct: purchased Reaction Biology Corporation
Procedure, shortened: as §1

ULK1 = biological target: T31, ULK1 (Homo sapiens, UniProt O75385); conditions: 500 nM; relative to DMSO; read-out: Residual enzymatic activity
T31 construct: purchased Reaction Biology Corporation
Procedure, shortened: as §1

ULK3 = biological target: T32, ULK3 (Homo sapiens, UniProt Q6PHR2); conditions: 500 nM; relative to DMSO; read-out: Residual enzymatic activity
T32 construct: purchased Reaction Biology Corporation
Procedure, shortened: as §1

p70S6K/RPS6KB1 = biological target: T33, p70S6K/RPS6KB1 (Homo sapiens, UniProt P23443); conditions: 500 nM; relative to DMSO; read-out: Residual enzymatic activity
T33 construct: purchased Reaction Biology Corporation
Procedure, shortened: as §1

p70S6Kb/RPS6KB2 = biological target: T34, p70S6Kb/RPS6KB2 (Homo sapiens, UniProt Q9UBS0); conditions: 500 nM; relative to DMSO; read-out: Residual enzymatic activity
T34 construct: purchased Reaction Biology Corporation
Procedure, shortened: as §1

[1] = 10-dose mode, threefold serial dilution from 10 μM

T8 sequence (Q15375 28-998): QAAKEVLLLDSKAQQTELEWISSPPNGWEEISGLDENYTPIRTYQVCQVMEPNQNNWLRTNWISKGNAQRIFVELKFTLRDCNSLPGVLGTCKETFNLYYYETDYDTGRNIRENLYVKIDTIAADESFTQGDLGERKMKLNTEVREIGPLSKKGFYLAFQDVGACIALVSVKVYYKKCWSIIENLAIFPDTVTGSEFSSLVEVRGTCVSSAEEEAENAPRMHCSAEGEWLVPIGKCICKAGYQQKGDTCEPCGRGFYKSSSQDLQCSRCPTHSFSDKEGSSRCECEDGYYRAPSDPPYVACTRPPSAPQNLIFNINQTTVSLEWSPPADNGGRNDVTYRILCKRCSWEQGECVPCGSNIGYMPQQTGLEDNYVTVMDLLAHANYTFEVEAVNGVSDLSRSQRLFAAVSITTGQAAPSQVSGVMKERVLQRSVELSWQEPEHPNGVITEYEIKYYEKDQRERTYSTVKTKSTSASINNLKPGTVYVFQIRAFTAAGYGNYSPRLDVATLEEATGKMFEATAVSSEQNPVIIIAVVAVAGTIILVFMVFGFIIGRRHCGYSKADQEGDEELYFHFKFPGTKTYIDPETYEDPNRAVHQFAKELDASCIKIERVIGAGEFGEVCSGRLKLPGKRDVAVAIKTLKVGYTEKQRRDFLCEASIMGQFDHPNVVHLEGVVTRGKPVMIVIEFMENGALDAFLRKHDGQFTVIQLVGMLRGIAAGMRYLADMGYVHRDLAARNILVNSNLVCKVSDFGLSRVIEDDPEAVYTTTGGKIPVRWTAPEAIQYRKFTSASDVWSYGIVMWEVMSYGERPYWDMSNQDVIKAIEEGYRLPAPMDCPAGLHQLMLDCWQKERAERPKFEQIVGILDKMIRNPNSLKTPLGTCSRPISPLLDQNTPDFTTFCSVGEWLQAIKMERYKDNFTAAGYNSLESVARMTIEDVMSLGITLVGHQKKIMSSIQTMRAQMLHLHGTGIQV
T19 sequence (Q5S007 whole entry): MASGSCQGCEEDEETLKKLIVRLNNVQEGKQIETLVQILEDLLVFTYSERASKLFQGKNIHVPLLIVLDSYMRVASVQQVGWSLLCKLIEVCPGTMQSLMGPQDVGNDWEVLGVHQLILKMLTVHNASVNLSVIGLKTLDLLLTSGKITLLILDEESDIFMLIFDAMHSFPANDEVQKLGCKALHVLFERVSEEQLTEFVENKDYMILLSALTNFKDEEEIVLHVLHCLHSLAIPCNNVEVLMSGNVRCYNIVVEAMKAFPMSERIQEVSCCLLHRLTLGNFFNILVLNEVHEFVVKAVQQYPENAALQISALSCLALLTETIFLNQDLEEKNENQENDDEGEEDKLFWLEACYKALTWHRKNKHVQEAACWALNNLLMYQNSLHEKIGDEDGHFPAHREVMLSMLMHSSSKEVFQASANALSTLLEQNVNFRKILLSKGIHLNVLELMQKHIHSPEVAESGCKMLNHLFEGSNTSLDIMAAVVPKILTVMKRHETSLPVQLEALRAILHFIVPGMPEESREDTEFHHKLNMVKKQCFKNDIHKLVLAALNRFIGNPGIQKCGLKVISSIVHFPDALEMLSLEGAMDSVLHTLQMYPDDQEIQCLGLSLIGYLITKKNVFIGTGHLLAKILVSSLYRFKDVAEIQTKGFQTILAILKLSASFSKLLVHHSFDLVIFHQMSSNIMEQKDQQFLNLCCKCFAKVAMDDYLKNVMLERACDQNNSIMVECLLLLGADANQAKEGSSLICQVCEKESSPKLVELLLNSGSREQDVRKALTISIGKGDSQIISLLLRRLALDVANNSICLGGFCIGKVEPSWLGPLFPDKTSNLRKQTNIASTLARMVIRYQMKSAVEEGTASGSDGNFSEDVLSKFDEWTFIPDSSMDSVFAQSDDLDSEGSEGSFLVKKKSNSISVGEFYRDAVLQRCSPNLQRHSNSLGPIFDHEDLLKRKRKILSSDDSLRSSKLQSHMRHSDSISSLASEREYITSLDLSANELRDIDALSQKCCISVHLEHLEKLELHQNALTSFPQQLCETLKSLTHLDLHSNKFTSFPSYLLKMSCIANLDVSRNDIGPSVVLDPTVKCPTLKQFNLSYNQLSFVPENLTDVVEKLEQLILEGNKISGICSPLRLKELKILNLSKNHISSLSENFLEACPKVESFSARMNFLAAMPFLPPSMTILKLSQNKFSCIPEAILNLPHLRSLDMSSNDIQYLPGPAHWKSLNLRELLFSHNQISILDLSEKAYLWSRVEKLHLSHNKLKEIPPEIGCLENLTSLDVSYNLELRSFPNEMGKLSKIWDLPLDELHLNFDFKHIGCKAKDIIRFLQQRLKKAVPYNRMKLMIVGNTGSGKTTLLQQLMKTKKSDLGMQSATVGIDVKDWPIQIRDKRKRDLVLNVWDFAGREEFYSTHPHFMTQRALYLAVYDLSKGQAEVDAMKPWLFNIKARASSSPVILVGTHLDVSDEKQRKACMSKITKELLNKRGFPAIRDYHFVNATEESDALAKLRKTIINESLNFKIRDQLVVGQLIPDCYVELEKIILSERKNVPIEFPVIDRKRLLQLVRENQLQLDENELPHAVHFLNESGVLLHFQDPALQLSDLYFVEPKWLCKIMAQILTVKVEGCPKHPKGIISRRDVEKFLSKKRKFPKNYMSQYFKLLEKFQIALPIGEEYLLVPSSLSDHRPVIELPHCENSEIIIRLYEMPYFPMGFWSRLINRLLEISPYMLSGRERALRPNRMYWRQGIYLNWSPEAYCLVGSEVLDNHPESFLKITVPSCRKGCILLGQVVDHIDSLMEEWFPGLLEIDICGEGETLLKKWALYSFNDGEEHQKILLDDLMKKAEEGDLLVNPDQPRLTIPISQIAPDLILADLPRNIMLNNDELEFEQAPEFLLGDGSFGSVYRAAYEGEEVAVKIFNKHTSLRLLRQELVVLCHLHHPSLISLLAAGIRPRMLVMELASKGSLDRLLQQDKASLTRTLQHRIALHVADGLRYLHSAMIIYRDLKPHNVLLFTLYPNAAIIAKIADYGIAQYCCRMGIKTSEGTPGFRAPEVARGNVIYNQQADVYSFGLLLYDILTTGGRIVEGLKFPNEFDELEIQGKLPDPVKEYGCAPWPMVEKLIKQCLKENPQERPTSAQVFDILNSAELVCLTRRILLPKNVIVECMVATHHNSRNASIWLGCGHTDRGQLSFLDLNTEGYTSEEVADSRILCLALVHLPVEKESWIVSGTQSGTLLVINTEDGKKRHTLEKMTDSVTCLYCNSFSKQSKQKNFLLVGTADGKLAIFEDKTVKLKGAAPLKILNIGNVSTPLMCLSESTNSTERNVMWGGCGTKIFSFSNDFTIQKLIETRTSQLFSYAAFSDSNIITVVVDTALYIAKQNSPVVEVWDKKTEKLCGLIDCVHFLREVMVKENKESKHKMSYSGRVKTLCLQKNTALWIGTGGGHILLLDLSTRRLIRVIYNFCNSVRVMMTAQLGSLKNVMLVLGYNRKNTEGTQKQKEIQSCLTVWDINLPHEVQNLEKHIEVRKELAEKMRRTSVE
T3 sequence (Q13882 whole entry): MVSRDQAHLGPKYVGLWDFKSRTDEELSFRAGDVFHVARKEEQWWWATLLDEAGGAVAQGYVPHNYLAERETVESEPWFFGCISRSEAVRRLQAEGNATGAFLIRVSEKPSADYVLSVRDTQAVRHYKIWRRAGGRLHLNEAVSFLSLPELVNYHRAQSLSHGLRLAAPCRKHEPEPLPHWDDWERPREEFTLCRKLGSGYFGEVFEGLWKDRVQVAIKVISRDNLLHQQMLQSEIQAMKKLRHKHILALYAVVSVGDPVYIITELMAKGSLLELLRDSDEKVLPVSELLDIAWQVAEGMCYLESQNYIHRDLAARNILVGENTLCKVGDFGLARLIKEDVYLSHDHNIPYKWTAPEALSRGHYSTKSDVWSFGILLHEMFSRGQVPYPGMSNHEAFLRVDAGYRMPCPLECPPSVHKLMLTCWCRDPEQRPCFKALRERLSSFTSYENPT
T11 sequence (P42685 whole entry): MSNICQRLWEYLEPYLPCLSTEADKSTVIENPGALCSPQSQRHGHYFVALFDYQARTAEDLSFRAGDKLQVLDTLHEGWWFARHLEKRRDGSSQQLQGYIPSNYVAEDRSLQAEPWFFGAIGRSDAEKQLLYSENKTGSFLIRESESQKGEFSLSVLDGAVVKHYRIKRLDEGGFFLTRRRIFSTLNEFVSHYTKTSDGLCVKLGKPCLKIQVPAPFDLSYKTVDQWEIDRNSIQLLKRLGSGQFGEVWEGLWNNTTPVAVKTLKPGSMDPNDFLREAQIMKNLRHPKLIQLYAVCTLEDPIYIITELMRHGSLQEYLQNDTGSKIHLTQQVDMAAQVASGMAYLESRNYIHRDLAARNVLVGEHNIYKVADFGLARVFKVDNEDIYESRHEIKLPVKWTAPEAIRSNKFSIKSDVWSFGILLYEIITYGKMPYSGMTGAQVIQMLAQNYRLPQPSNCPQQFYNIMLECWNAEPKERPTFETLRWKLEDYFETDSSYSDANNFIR
T10 sequence (P09769 whole entry): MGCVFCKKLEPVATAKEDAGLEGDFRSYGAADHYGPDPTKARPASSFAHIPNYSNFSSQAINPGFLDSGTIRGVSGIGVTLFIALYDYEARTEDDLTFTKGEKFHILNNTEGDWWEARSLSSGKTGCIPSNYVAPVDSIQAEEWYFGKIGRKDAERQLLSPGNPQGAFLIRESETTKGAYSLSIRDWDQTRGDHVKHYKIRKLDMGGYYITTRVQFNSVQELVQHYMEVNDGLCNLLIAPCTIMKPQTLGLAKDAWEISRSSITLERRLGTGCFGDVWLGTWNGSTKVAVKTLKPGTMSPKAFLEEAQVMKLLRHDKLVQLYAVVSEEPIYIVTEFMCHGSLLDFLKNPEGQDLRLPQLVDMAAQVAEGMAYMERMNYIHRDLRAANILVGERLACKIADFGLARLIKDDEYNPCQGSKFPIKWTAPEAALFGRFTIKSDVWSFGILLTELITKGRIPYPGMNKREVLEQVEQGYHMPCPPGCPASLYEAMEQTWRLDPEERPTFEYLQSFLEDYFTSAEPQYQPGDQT

COc1cc(Nc2ncc(F)c(Nc3ccc4c(n3)NC(=O)C(C)(C)O4)n2)cc(OC)c1OC [R406, reference compound]
remaining activity at 0.5 µM (ALK6/BMPR1B): 145% | remaining activity at 0.5 µM (ARAF): 41% | remaining activity at 0.5 µM (BRK): 27.6% | remaining activity at 0.5 µM (CDK6/cyclin D1): 93.4% | remaining activity at 0.5 µM (DCAMKL2): 91.8% | remaining activity at 0.5 µM (DDR2): 31.5% | remaining activity at 0.5 µM (DYRK1/DYRK1A): 53% | remaining activity at 0.5 µM (EPHA7): 10.5% | remaining activity at 0.5 µM (FGFR1; read-out: Residual enzymatic activity): 29% | remaining activity at 0.5 µM (FGR): 15.7% | remaining activity at 0.5 µM (FRK/PTK5): 35% | remaining activity at 0.5 µM (GCK/MAP4K2): 77.5% | remaining activity at 0.5 µM (GRK1): 96% | remaining activity at 0.5 µM (Haspin): 91.5% | remaining activity at 0.5 µM (IKKb/IKBKB): 53% | remaining activity at 0.5 µM (IR): 77.5% | remaining activity at 0.5 µM (LATS2): 51.2% | remaining activity at 0.5 µM (LOK/STK10): 37.4% | remaining activity at 0.5 µM (LRRK2): 5.5% | remaining activity at 0.5 µM (MAPKAPK3): 102% | remaining activity at 0.5 µM (MEKK2): 56.8% | remaining activity at 0.5 µM (MNK1): 61.5% | remaining activity at 0.5 µM (MNK2): 37.9% | remaining activity at 0.5 µM (MSK2/RPS6KA4): 97.7% | remaining activity at 0.5 µM (MST3/STK24): 95.6% | remaining activity at 0.5 µM (NEK1): 7% | remaining activity at 0.5 µM (PLK2): 19.4% | remaining activity at 0.5 µM (STK22D/TSSK1): 9.6% | remaining activity at 0.5 µM (TTBK2): 95.4% | remaining activity at 0.5 µM (TYK1/LTK): 30.2% | remaining activity at 0.5 µM (ULK1): 8.8% | remaining activity at 0.5 µM (ULK3): 20.3% | remaining activity at 0.5 µM (p70S6K/RPS6KB1): 49.1% | remaining activity at 0.5 µM (p70S6Kb/RPS6KB2): 74.6%

COc1cc(Nc2ncnc(Nc3cc4c(cn3)NC(=O)C(C)(C)O4)n2)cc(OC)c1OC [MT-SYK-03]
remaining activity at 0.5 µM (ALK6/BMPR1B): 143% | remaining activity at 0.5 µM (ARAF): 59.7% | Residual enzymatic activity (BRK): 54.2% | remaining activity at 0.5 µM (BRK): > 54% | remaining activity at 0.5 µM (CDK6/cyclin D1): 91.8% | remaining activity at 0.5 µM (DCAMKL2): 99.1% | remaining activity at 0.5 µM (DDR2): 69% | remaining activity at 0.5 µM (DYRK1/DYRK1A): 90.5% | Residual enzymatic activity (EPHA7): 58.4% | remaining activity at 0.5 µM (EPHA7): > 54% | Residual enzymatic activity (FGFR1): 77.5% | remaining activity at 0.5 µM (FGR): 22.6% | IC50 (FGR; [1]): 0.009 µM | Residual enzymatic activity (FRK/PTK5): 56.5% | remaining activity at 0.5 µM (FRK/PTK5): > 54% | remaining activity at 0.5 µM (GCK/MAP4K2): 100% | remaining activity at 0.5 µM (GRK1): 105% | remaining activity at 0.5 µM (Haspin): 101% | remaining activity at 0.5 µM (IKKb/IKBKB): 94% | remaining activity at 0.5 µM (IR): 94.4% | remaining activity at 0.5 µM (LATS2): 85.3% | remaining activity at 0.5 µM (LOK/STK10): 75.7% | remaining activity at 0.5 µM (LRRK2): 48% | IC50 (LRRK2; [1]): 0.206 µM | remaining activity at 0.5 µM (MAPKAPK3): 102% | remaining activity at 0.5 µM (MEKK2): 106% | remaining activity at 0.5 µM (MNK1): 91.2% | remaining activity at 0.5 µM (MNK2): 78.6% | remaining activity at 0.5 µM (MSK2/RPS6KA4): 97.9% | remaining activity at 0.5 µM (MST3/STK24): 108% | remaining activity at 0.5 µM (NEK1): 52.7% | remaining activity at 0.5 µM (PLK2): 81.6% | remaining activity at 0.5 µM (STK22D/TSSK1): 49.9% | IC50 (STK22D/TSSK1; [1]): 0.198 µM | remaining activity at 0.5 µM (TTBK2): 109% | remaining activity at 0.5 µM (TYK1/LTK): 92% | remaining activity at 0.5 µM (ULK1): 62.2% | remaining activity at 0.5 µM (ULK3): 74.9% | remaining activity at 0.5 µM (p70S6K/RPS6KB1): 98.3% | remaining activity at 0.5 µM (p70S6Kb/RPS6KB2): 91.4%
